We go through eight compounds from PubChem BioAssay (NCI).

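Each compound was tested at five concentrations against cells in 96-well plates for 48 hours. GI50: concentration for 50% inhibition of growth. TGI: total growth inhibition.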 Some results are limits rather than exact numbers.

Among the test systems are OVCAR-8 ovarian; HCT-116 colon; HCC-2998 colon; COLO 205 colon; MDA-MB-231 breast; HS 578T breast; HL-60(TB) leukemia; MALME-3M melanoma; SK-MEL-2 melanoma; IGROV1 ovarian.
Common to all, as to experiment: NCI anticancer screen, dose series, 48 h

On to `COc1ccc(-c2ccc(/C=C/C(=O)NO)cc2)cc1`, for which the GI50 in the assay on OVCAR-8 ovarian is 0.896 µM; in the assay on HCT-116 colon, 0.451 µM; in the assay with HCC-2998 colon it was 0.662 µM; with COLO 205 colon, 2.34 µM; in the assay with MDA-MB-231 breast, 1.17 µM; with HS 578T breast, 3.15 µM. The GI50 is 0.269 µM in the assay on HL-60(TB) leukemia, 0.65 µM in the assay with MALME-3M melanoma, 5.11 µM with SK-MEL-2 melanoma and 0.768 µM in the assay on IGROV1 ovarian. Further, the TGI with OVCAR-8 ovarian stood at 4.62 µM; with HCT-116 colon it was 11.4 µM; in the assay with HCC-2998 colon, 7.92 µM; with COLO 205 colon, 10.1 µM; in the assay with MDA-MB-231 breast, 13.4 µM; in the assay on HS 578T breast, 56.3 µM. The TGI in the assay with MALME-3M melanoma was 11.8 µM; in the assay on SK-MEL-2 melanoma, 37.6 µM; with IGROV1 ovarian, 9.66 µM.
As to `COc1cc(-c2cc(-c3ccc(N(C)C)cc3)nc(N3CCOCC3)c2C#N)cc(OC)c1OC`, the GI50 is 1.27 µM in the assay on OVCAR-8 ovarian; 0.388 µM in the assay on HCT-116 colon; 2.53 µM in the assay on HCC-2998 colon; 0.355 µM with COLO 205 colon; 0.463 µM with MDA-MB-231 breast; 22.1 µM with HS 578T breast. In addition, the GI50 with HL-60(TB) leukemia was 0.468 µM; in the assay on MALME-3M melanoma, 1.55 µM; in the assay on SK-MEL-2 melanoma, 1.14 µM; in the assay with IGROV1 ovarian, 0.727 µM. Also, the TGI in the assay on OVCAR-8 ovarian is greater than 100 µM; in the assay with HCT-116 colon, greater than 100 µM; with HCC-2998 colon, 21.3 µM; in the assay with COLO 205 colon, 24.2 µM; in the assay on MDA-MB-231 breast it was greater than 33.5 µM; in the assay with HS 578T breast it was greater than 100 µM. Besides, the TGI in the assay on MALME-3M melanoma is greater than 49.1 µM; with SK-MEL-2 melanoma it was 17.9 µM; in the assay with IGROV1 ovarian it was 70 µM.
As to `O=C(NCc1cccnc1)/C(=C\c1ccc(Br)cc1)S(=O)(=O)c1ccccc1`, the GI50 in the assay on OVCAR-8 ovarian was 0.705 µM; with HCT-116 colon, 0.46 µM; with HCC-2998 colon, 1.51 µM; in the assay with COLO 205 colon, 1.22 µM; with MDA-MB-231 breast, 0.705 µM; with HS 578T breast, 1.25 µM. Further, the GI50 with HL-60(TB) leukemia was 0.345 µM; with MALME-3M melanoma it was 1.13 µM; in the assay on SK-MEL-2 melanoma it was 1.43 µM; in the assay with IGROV1 ovarian, 0.636 µM. Further, the TGI is 3.33 µM in the assay on OVCAR-8 ovarian; 1.84 µM in the assay with HCT-116 colon; 3 µM in the assay on HCC-2998 colon; 2.65 µM in the assay on COLO 205 colon; 2.1 µM in the assay with MDA-MB-231 breast; 5.31 µM in the assay on HS 578T breast. Moreover, the TGI came out at 2.05 µM in the assay on HL-60(TB) leukemia, 2.58 µM in the assay on MALME-3M melanoma, 3.03 µM with SK-MEL-2 melanoma and 2.11 µM in the assay on IGROV1 ovarian.
As to `O=C1c2ccccc2C(=O)c2c1ccc(C(Br)Br)c2[N+](=O)[O-]`, the GI50 is 1.95 µM in the assay with OVCAR-8 ovarian; 0.739 µM in the assay on HCT-116 colon; 2.08 µM in the assay on HCC-2998 colon; 1.55 µM with MDA-MB-231 breast; 2.28 µM in the assay on HS 578T breast; 1.87 µM in the assay with HL-60(TB) leukemia. Besides, the GI50 with MALME-3M melanoma is 1.94 µM; in the assay with SK-MEL-2 melanoma it was 1.91 µM; in the assay with IGROV1 ovarian it was 1.15 µM. The TGI in the assay on OVCAR-8 ovarian stood at 4.35 µM; in the assay on HCT-116 colon it was 2.19 µM; in the assay on HCC-2998 colon, 4.6 µM; in the assay with MDA-MB-231 breast it was 3.13 µM; with HS 578T breast it was 6.75 µM; in the assay on HL-60(TB) leukemia, 4.22 µM. The TGI came out at 3.71 µM with MALME-3M melanoma, 4.09 µM in the assay with SK-MEL-2 melanoma and 2.87 µM with IGROV1 ovarian.
Take `NC(=O)CCC(NC(=O)OCc1ccccc1)C(=O)OCC(=O)c1ccccc1` (stereo not drawn): the GI50 with HCT-116 colon was greater than 100 µM; in the assay on HCC-2998 colon, 65.6 µM; with COLO 205 colon, greater than 100 µM; in the assay with MDA-MB-231 breast, greater than 100 µM; with HS 578T breast, greater than 100 µM; in the assay on HL-60(TB) leukemia, greater than 100 µM. The GI50 in the assay on MALME-3M melanoma, in the assay on SK-MEL-2 melanoma and with IGROV1 ovarian was greater than 100 µM each time. Moreover, the TGI in the assay with HCT-116 colon, with HCC-2998 colon, with COLO 205 colon, with MDA-MB-231 breast, in the assay with HS 578T breast and in the assay with HL-60(TB) leukemia was greater than 100 µM throughout. The TGI with MALME-3M melanoma, in the assay on SK-MEL-2 melanoma and with IGROV1 ovarian was greater than 100 µM each time.
Regarding `C=C(CN1CCN(c2ccccc2OC)CC1)c1ccc(C(=O)Nc2ccccc2N)cc1`, the GI50 was 9.28 µM with OVCAR-8 ovarian; 6.02 µM with HCT-116 colon; 0.27 µM in the assay on HCC-2998 colon; 8.31 µM in the assay on COLO 205 colon; 0.315 µM in the assay with MDA-MB-231 breast; 3.58 µM with HS 578T breast. The GI50 in the assay on HL-60(TB) leukemia is 1.81 µM; with SK-MEL-2 melanoma, 12.6 µM; in the assay with IGROV1 ovarian, 9.54 µM. The TGI in the assay on OVCAR-8 ovarian was 32.4 µM; with HCT-116 colon it was 18.3 µM; in the assay with HCC-2998 colon, 0.452 µM; in the assay on COLO 205 colon it was 37.2 µM; in the assay on MDA-MB-231 breast, 4.4 µM; in the assay with HS 578T breast, greater than 50 µM. Moreover, the TGI in the assay with HL-60(TB) leukemia was greater than 50 µM; in the assay on SK-MEL-2 melanoma, 37.9 µM; with IGROV1 ovarian it was 30.6 µM.
Take `Cl.[Pt].[c-]1ccccc1-c1ccccn1.c1ccc(P(c2ccccc2)C([PH+](c2ccccc2)c2ccccc2)[PH+](c2ccccc2)c2ccccc2)cc1`: the GI50 in the assay with OVCAR-8 ovarian was 0.853 µM; with HCT-116 colon, 1.58 µM; in the assay with HCC-2998 colon, 3.64 µM; with MDA-MB-231 breast it was 1.93 µM; with HS 578T breast it was 2.22 µM; with HL-60(TB) leukemia it was 1.1 µM. Besides, the GI50 with MALME-3M melanoma was 0.42 µM; with SK-MEL-2 melanoma, 2.09 µM; in the assay on IGROV1 ovarian, 2.18 µM. Moreover, the TGI in the assay with OVCAR-8 ovarian was greater than 100 µM; with HCT-116 colon, 7.11 µM; in the assay with HCC-2998 colon, 18.6 µM; in the assay on MDA-MB-231 breast, 5.24 µM; with HS 578T breast, 20.8 µM; in the assay with HL-60(TB) leukemia, 5.32 µM. The TGI is 2.65 µM with MALME-3M melanoma, 5.92 µM with SK-MEL-2 melanoma and greater than 100 µM with IGROV1 ovarian.
As for `C=C(C=O)C1CC(=O)C(C(=O)OC)[C@@H]2O[C@@](C)(CC2=O)C[C@@H]2OC(=O)[C@]3(O[C@@H]23)[C@@H](C(=O)OC)C1` (stereo partly drawn), the GI50 in the assay with OVCAR-8 ovarian was 17.9 µM; with HCT-116 colon, 14.7 µM; in the assay with HCC-2998 colon it was 14.4 µM; with COLO 205 colon, 17.2 µM; with MDA-MB-231 breast it was 22.1 µM; in the assay with HS 578T breast it was 32.8 µM. Besides, the GI50 with HL-60(TB) leukemia is 20.1 µM; with SK-MEL-2 melanoma, 15.6 µM; in the assay on IGROV1 ovarian, 4.56 µM. Besides, the TGI is 62.4 µM with OVCAR-8 ovarian; 33.6 µM with HCT-116 colon; 30.8 µM in the assay with HCC-2998 colon; greater than 100 µM with COLO 205 colon; 57.5 µM in the assay with MDA-MB-231 breast; greater than 100 µM with HS 578T breast. Further, the TGI in the assay with HL-60(TB) leukemia worked out at 53.5 µM; with SK-MEL-2 melanoma, 52.9 µM; in the assay with IGROV1 ovarian, 48.3 µM.
